System: T1, FabI2 ENR (metagenomic YX7K type enoyl-acyl carrier protein reductase)
T1 construct: fabI2 gene in pET-30b(+) (BamHI/SalI), vector pAF1-5; His-tag fusion protein from E. coli BL21(DE3), tag cleavage not mentioned
Assay: spectrophotometric NADH oxidation at […] nm, Michaelis-Menten fit
Type: biochemical, uncultured bacterium
Conditions: 100 nM enzyme, 100 mM sodium phosphate pH 7.0, 25 °C

SMILES | Km (60 µM crotonyl-CoA) [µM] | Km (200 µM NADH) [µM]
NC(=O)C1=CN([C@@H]2O[C@H](COP(=O)(O)OP(=O)(O)OC[C@H]3O[C@@H](n4cnc5c(N)ncnc54)[C@H](O)[C@@H]3O)[C@@H](O)[C@H]2O)C=CC1 [NADH] | 18.2 | 
C/C=C/C(=O)SCCNC(=O)CCNC(=O)[C@H](O)C(C)(C)COP(=O)(O)OP(=O)(O)OC[C@H]1O[C@@H](n2cnc3c(N)ncnc32)[C@H](O)[C@@H]1OP(=O)(O)O [crotonyl-CoA] |  | 13.8

— paper PMC6817880, “Biochemical and Structural Insights Concerning Triclosan Resistance in a Novel YX7K Type Enoyl-Acyl Carrier Protein Reductase from Soil Metagenome” (Scientific Reports, 2019)
